Data taken from patent publication US20250206730A1 (AUTOTELIC BIO INC., priority 2022, published 2025).
pIC50: −log10 of the molar value.

Tests used:
ALK5 kinase = biological target: T1, ALK5 kinase (Homo sapiens, UniProt P36897); experiment: LanthaScreen Eu Kinase Binding Assay; conditions: Kinase Tracer 178, Eu-anti-GST Antibody, read-out: IC50 Enzyme
T1 sequence (P36897 34-503): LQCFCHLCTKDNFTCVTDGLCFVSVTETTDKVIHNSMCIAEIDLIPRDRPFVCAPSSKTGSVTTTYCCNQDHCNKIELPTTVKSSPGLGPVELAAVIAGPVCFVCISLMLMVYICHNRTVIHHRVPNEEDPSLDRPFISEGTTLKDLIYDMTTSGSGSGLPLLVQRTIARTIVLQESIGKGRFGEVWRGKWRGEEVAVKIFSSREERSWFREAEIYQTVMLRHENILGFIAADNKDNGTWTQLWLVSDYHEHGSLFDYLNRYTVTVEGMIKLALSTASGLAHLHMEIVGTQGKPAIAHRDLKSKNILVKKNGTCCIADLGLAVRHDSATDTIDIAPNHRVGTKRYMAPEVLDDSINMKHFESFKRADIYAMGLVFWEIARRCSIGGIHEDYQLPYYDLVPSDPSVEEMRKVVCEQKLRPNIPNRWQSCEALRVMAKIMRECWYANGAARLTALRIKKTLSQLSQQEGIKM
Procedure: [Example 1] LanthaScreen Eu Kinase Binding Assay
4 μL of 4× Test Compound in 4% DMSO and 4 μL of 4× Kinase in Kinase buffer were added to wells (low volume, white 384-well plate (Greiner Cat. #784207)). The plate was shaken for 30 seconds, centrifuged for 10 seconds at 1000 rpm, and incubated at RT for 30 minutes. Then, 4 μL of 4× Eu-anti-GST Antibody and 4 μL of 4× Kinase Tracer 178 were added to the wells. The plate was shaken for 30 seconds, centrifuged for 10 seconds at 1000 rpm, and incubated at RT for 60 minutes. Fluorescence was measured by a plate reader, Biotek Synergy H1 (Vermont, USA) under the following conditions. • Excitation: 340 nm (3 nm bandpass) • Kinase tracer emission: 665 nm (10 nm bandpass) • Eu Ab emission: 615 nm (10 nm bandpass) • Emission ratio=665 nm (tracer)/615 nm (Eu Ab) • The higher the binding affinity of compound to ALK5 kinase is, the less the emission ratio is.

TGF-β signaling = experiment: Assay for evaluating cellular inhibition of TGF-β signaling, 4T1 (SBE-luc2P) luciferase reporter; assay type: cell-based; conditions: Mus musculus, 4T1, 4T1 (SBE-luc2P) transient pool, 0.2% FBS, 2 h pre-treatment, TGF-β1 2 ng/mL 24 h; read-out: IC50 4T1 Cell
Procedure: [Example 2] Assay for Evaluating Cellular Inhibition of TGF-β Signaling
4T1 (SBE-luc2P) transient pool that have SBE-luc2P (hygro) expression plasmid or HEK293 (SBE reporter) stable cells (BPS bioscience) were seeded at 6×10^3 cells/well or 2.5×10^4 cells/well in 96-well plate, respectively. 4T1 (SBE-luc2P) transient pool were pre-treated with novel compound synthesized in Example 1 above in 0.2% FBS at approximately 60% confluence at 37° C. in 5% CO2. Also, HEK293 (SBE reporter) stable cells were pre-treated with each test compounds of formula in 0.5% FBS at approximately 80% confluence at 37° C. in 5% CO2. After 2 hours, cells were treated with TGF-β1 (2 ng/mL) for 24 h at 37° C. in 5% CO2. Cell lysates were prepared using Luciferase Assay (Promega) according to the manufacturer's instruction, and luminescence was measured by a plate reader, Biotek Synergy H1 (Vermont, USA).

Row | SMILES | pIC50 (ALK5 kinase) | pIC50 (TGF-β signaling)
1 | CC(C)(O)c1cccc(Nc2cc(Oc3sc(NC4CC4)nc3-c3ccccc3)ccn2)c1 [A-44, 2-(3-((4-((2-(Cyclopropylamino)-4-phenylthiazol-5-yl)oxy)pyridin-2-yl)amino)phenyl)propan-2-ol] | > 7.00 | < 7.00
2 | NC(=O)c1ccc(Nc2cc(Oc3sc(NC4CC4)nc3-c3ccccc3)ccn2)cc1 [A-47, 4-((4-((2-(Cyclopropylamino)-4-phenylthiazol-5-yl)oxy)pyridin-2-yl)amino)benzamide] | < 7.00 | < 7.00
3 | Cc1nc(-c2ccccc2)c(Oc2ccnc(Nc3ccc(C(N)=O)nc3)c2)s1 [A-91, 5-((4-((2-Methyl-4-phenylthiazol-5-yl)oxy)pyridin-2-yl)amino)picolinamide] | > 7.00 | < 7.00
4 | Nc1nc(-c2ccccc2)c(Oc2ccnc(Nc3ccc(C(=O)O)cc3)c2)s1 [A-39, 4-((4-((2-Amino-4-phenylthiazol-5-yl)oxy)pyridin-2-yl)amino)benzoic acid] | > 7.00 | < 7.00
5 | Cc1nc(-c2ccccc2)c(Oc2ccnc(Nc3ccc(OCCN4CCCCC4)cc3)c2)s1 [A-105, 4-((2-Methyl-4-phenylthiazol-5-yl)oxy)-N-(4-(2-(piperidin-1-yl)ethoxy)phenyl)pyridin-2-amine] | > 7.00 | > 7.00
6 | O=C(O)c1ccc(Nc2cc(Oc3sc(NC4CC4)nc3-c3ccccc3)ccn2)cc1 [A-49, 4-((4-((2-(Cyclopropylamino)-4-phenylthiazol-5-yl)oxy)pyridin-2-yl)amino)benzoic acid] | > 7.00 | < 7.00
7 | CNc1nc(-c2ccccc2)c(Oc2ccnc(Nc3ccc(C(=O)O)cc3)c2)s1 [A-56, 4-((4-((2-(Methylamino)-4-phenylthiazol-5-yl)oxy)pyridin-2-yl)amino)benzoic acid] | > 7.00 | < 7.00
8 | Cc1nc(-c2ccccc2)c(Oc2ccnc(Nc3ccc(N4CCNCC4)cc3)c2)s1 [A-104, 4-((2-Methyl-4-phenylthiazol-5-yl)oxy)-N-(4-(piperazin-1-yl)phenyl)pyridin-2-amine] | > 7.00 | > 7.00
9 | NS(=O)(=O)c1cccc(Nc2cc(Oc3sc(NC4CC4)nc3-c3ccccc3)ccn2)c1 [A-45, 3-((4-((2-(Cyclopropylamino)-4-phenylthiazol-5-yl)oxy)pyridin-2-yl)amino)benzenesulfonamide] | > 7.00 | < 7.00
10 | CNc1nc(-c2ccccc2)c(Oc2ccnc(Nc3ccc(S(N)(=O)=O)cc3)c2)s1 [A-53, 4-((4-((2-(Methylamino)-4-phenylthiazol-5-yl)oxy)pyridin-2-yl)amino)benzenesulfonamide] | > 7.00 | 
11 | NC(=O)c1cccc(Nc2cc(Oc3sc(NC4CC4)nc3-c3ccccc3)ccn2)c1 [A-46, 3-((4-((2-(Cyclopropylamino)-4-phenylthiazol-5-yl)oxy)pyridin-2-yl)amino)benzamide] | > 7.00 | 
12 | CNc1nc(-c2ccccc2)c(Oc2ccnc(Nc3ccc(C(C)(C)O)nc3)c2)s1 [A-55, 2-(5-((4-((2-(Methylamino)-4-phenylthiazol-5-yl)oxy)pyridin-2-yl)amino)pyridin-2-yl)propan-2-ol] | > 7.00 | 
13 | CNc1nc(-c2ccccc2)c(Oc2ccnc(Nc3ccnc(C(C)(C)O)c3)c2)s1 [A-54, 2-(4-((4-((2-(Methylamino)-4-phenylthiazol-5-yl)oxy)pyridin-2-yl)amino)pyridin-2-yl)propan-2-ol] | > 7.00 | 

More lines, now with the values ahead:

Row | pIC50 (ALK5 kinase) | pIC50 (TGF-β signaling) | SMILES
14 | > 7.00 | > 7.00 | CC(C)c1nc(-c2ccccc2)c(Oc2ccnc(Nc3ccc(C(=O)O)cc3)c2)s1 [A-231, 4-((4-((2-Isopropyl-4-phenylthiazol-5-yl)oxy)pyridin-2-yl)amino)benzoic acid]
15 | < 7.00 | < 7.00 | Nc1nc(-c2ccc3ccccc3c2)c(Oc2ccnc(Nc3cccc(S(N)(=O)=O)c3)c2)s1 [A-234, 3-((4-((2-Amino-4-(naphthalen-2-yl)thiazol-5-yl)oxy)pyridin-2-yl)amino)benzenesulfonamide]
16 | > 7.00 | < 7.00 | O=C(O)c1cccc(Nc2cc(Oc3sc(Br)nc3-c3ccccc3)ccn2)c1 [A-171, 3-((4-((2-Bromo-4-phenylthiazol-5-yl)oxy)pyridin-2-yl)amino)benzoic acid]
17 | > 7.00 | > 7.00 | CCc1nc(-c2cccc(C)n2)c(Oc2ccnc(Nc3ccc(C(=O)NC)cn3)c2)s1 [A-253, 6-((4-((2-Ethyl-4-(6-methylpyridin-2-yl)thiazol-5-yl)oxy)pyridin-2-yl)amino)-N-methylnicotinamide]
18 | > 7.00 | < 7.00 | COc1nc(-c2ccccc2)c(Oc2ccnc(Nc3cccc(C(=O)O)c3)c2)s1 [A-144, 3-((4-((2-Methoxy-4-phenylthiazol-5-yl)oxy)pyridin-2-yl)amino)benzoic acid]
19 | > 7.00 | > 7.00 | CNC(=O)c1cccc(Nc2cc(Oc3sc(C4CC4)nc3-c3ccccc3)ccn2)n1 [A-125, 6-((4-((2-Cyclopropyl-4-phenylthiazol-5-yl)oxy)pyridin-2-yl)amino)-N-methylpicolinamide]
20 | > 7.00 | > 7.00 | CNC(=O)c1ccc(Nc2cc(Oc3sc(N(C)C)nc3-c3cccc(C)n3)ccn2)nc1 [A-286, 6-((4-((2-(Dimethylamino)-4-(6-methylpyridin-2-yl)thiazol-5-yl)oxy)pyridin-2-yl)amino)-N-methylnicotinamide]
21 | > 7.00 | > 7.00 | Cc1nc(-c2ccccc2)c(Oc2ccnc(Nc3cccc(CCc4nn[nH]n4)c3)c2)s1 [A-114, N-(3-(2-(2H-Tetrazol-5-yl)ethyl)phenyl)-4-((2-methyl-4-phenylthiazol-5-yl)oxy)pyridin-2-amine]
22 | > 7.00 | > 7.00 | CNC(=O)c1ccc(Nc2cc(Oc3sc(N(C)C)nc3-c3ccccc3)ccn2)nc1 [A-166, 6-((4-((2-(Dimethylamino)-4-phenylthiazol-5-yl)oxy)pyridin-2-yl)amino)-N-methylnicotinamide]
23 | > 7.00 | < 7.00 | CN(C)c1nc(-c2ccccc2)c(Oc2ccnc(Nc3cccc(C(=O)O)c3)c2)s1 [A-167, 3-((4-((2-(Dimethylamino)-4-phenylthiazol-5-yl)oxy)pyridin-2-yl)amino)benzoic acid]
24 | > 7.00 | > 7.00 | Cc1cccc(-c2nc(C(F)(F)F)sc2Oc2ccnc(Nc3cccc(S(N)(=O)=O)c3)c2)n1 [A-289, 3-((4-((4-(6-Methylpyridin-2-yl)-2-(trifluoromethyl)thiazol-5-yl)oxy)pyridin-2-yl)amino)benzenesulfonamide]
25 | > 7.00 | < 7.00 | CC(C)c1nc(-c2ccccc2)c(Oc2ccnc(Nc3cccc(C(N)=O)c3)c2)s1 [A-220, 3-((4-((2-Isopropyl-4-phenylthiazol-5-yl)oxy)pyridin-2-yl)amino)benzamide]
26 | > 7.00 | > 7.00 | Cc1nc(-c2ccccc2)c(Oc2ccnc(Nc3cccc(Cc4nnn[nH]4)c3)c2)s1 [A-112, N-(3-((1H-Tetrazol-5-yl)methyl)phenyl)-4-((2-methyl-4-phenylthiazol-5-yl)oxy)pyridin-2-amine]
27 | > 7.00 | > 7.00 | CC(C)c1nc(-c2ccccc2)c(Oc2ccnc(Nc3ccc(C(N)=O)cn3)c2)s1 [A-227, 6-((4-((2-Isopropyl-4-phenylthiazol-5-yl)oxy)pyridin-2-yl)amino)nicotinamide]
28 | > 7.00 |  | Cc1cccc(-c2nc(N)sc2Oc2ccnc(Nc3cccc(S(N)(=O)=O)c3)c2)n1 [A-247, 3-((4-((2-Amino-4-(6-methylpyridin-2-yl)thiazol-5-yl)oxy)pyridin-2-yl)amino)benzenesulfonamide]
29 | < 7.00 |  | NC(=O)c1ccc(Nc2cc(Oc3sc(C4CCCC4)nc3-c3ccccc3)ccn2)nc1 [A-173, 6-((4-((2-Cyclopentyl-4-phenylthiazol-5-yl)oxy)pyridin-2-yl)amino)nicotinamide]
